From patent US20100119599A1 (ARCHER PHARMACEUTICALS, INC., priority 2006, published 2010)

Experiments:
Aβ1-40 = assay: Measurement of Aβ1-40 in culture medium of 7W WT APP751 CHO cells by ELISA; assay type: cell-based, Chinese hamster; settings: for activity at 5 µM: Cricetulus griseus, Table 1, 5 μM test compound, CHO cells stably transfected with human APP751, culture medium, ELISA, control DMSO, 0 = no detectable amount; for Aβ1-40 (% of control): CHO cells that overexpress APP751, zero = below the detection limit of the assay
Aβ1-42 = assay: Measurement of Aβ1-42 in culture medium of 7W WT APP751 CHO cells by ELISA; assay type: cell-based, Chinese hamster; settings: for activity at 5 µM: Cricetulus griseus, Table 1, 5 μM test compound, CHO cells stably transfected with human APP751, culture medium, ELISA, control DMSO, 0 = no detectable amount, read-out: Aβ1-42 (% of control); for Aβ1-42 (% of control): CHO cells that overexpress APP751, zero = below the detection limit of the assay
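Also: 5 µM test compound but RI-coded compounds at 10 µM for 24 hours.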

| Structure (SMILES) | activity at 5 µM (Aβ1-40) [%] | activity at 5 µM (Aβ1-42) [%] | Aβ1-40 (% of control) (Aβ1-40) | Aβ1-42 (% of control) (Aβ1-42) |
| --- | --- | --- | --- | --- |
| COc1ccc(C2C(C(=O)OC3CCCC3)=C(C)NC3=C2C(=O)CC(c2cccs2)C3)c(OC)c1OC (centres unmarked) [ST051571, cyclopentyl 2-methyl-5-oxo-7-(2-thienyl)-4-(2,3,4-trimethoxyphenyl)-1,4,6,7,8-pentahydroquinoline-3-carboxylate] | 40.4 | 62.1 |  |  |
| CC1=C(C(=O)OCCc2ccccc2)C(c2ccccc2OC(C)C)C2=C(CC(C)(C)CC2=O)N1 (centres unmarked) [ST015049, 2-phenylethyl 2,7,7-trimethyl-4-[2-(methylethoxy)phenyl]-5-oxo-1,4,6,7,8-pentahydroquinoline-3-carboxylate] | 0 | 62.4 |  |  |
| CC1=C(C(=O)Nc2ccccc2)C(Cc2ccccc2)C(C#N)=C(SCC(=O)Nc2cccc(C)c2)N1 (centres unmarked) [RI_34] |  |  | 31.4 % of control | 26.1 % of control |
| CC1=C(C(=O)OCCc2ccccc2)C(c2ccc(Cl)cc2Cl)C2=C(CCCC2=O)N1 (centres unmarked) [ST014884, 2-phenylethyl 4-(2,4-dichlorophenyl)-2-methyl-5-oxo-1,4,6,7,8-pentahydroquinoline-3-carboxylate] | 62 | 52.8 |  |  |
| CC1=C(C(=O)OCC2CCCO2)C(c2cccc(Cl)c2)C2=C(CC(c3cccs3)CC2=O)N1 (centres unmarked) [ST051818, oxolan-2-ylmethyl 4-(3-chlorophenyl)-2-methyl-5-oxo-7-(2-thienyl)-1,4,6,7,8-pentahydroquinoline-3-carboxylate] | 37 | 72.9 |  |  |
| COC(=O)C1=C(C)NC2=C(C(=O)CC(C)(C)C2)C1c1cccc(Br)c1 (centres unmarked) [ST013145, methyl 4-(3-bromophenyl)-2,7,7-trimethyl-5-oxo-1,4,6,7,8-pentahydroquinoline-3-carboxylate] | 13.9 | 43.3 |  |  |
| CCN(CC)c1ccc(C2C(C(=O)OC3CCCC3)=C(C)NC3=C2C(=O)CC(C)(C)C3)cc1 (centres unmarked) [ST013083, cyclopentyl 4-[4-(diethylamino)phenyl]-2,7,7-trimethyl-5-oxo-1,4,6,7,8-pentahydroquinoline-3-carboxylate] | 0 | 91.6 |  |  |
| COc1ccc(CCNC(=O)CSC2=C(C#N)C(c3cccs3)C(C(=O)Nc3ccccc3)=C(C)N2)cc1OC (centres unmarked) [RI_15] |  |  | 74.9 % of control | 41.2 % of control |
| CCCCOC(=O)C1=C(C)NC2=C(C(=O)CC(C)(C)C2)C1c1ccc(Cl)c(Cl)c1 (centres unmarked) [ST215419, butyl 4-(3,4-dichlorophenyl)-2,7,7-trimethyl-5-oxo-1,4,6,7,8-pentahydroquinoline-3-carboxylate] | 0 | 0 |  |  |
| CCOC(=O)C1=C(C)NC2=C(C(=O)CCC2)C1c1cccc(F)c1 (centres unmarked) [ST013162, ethyl 4-(3-fluorophenyl)-2-methyl-5-oxo-1,4,6,7,8-pentahydroquinoline-3-carboxylate] | 33.4 | 36.3 |  |  |
| COc1ccc(Br)cc1C1C(C(=O)OCC2CCCO2)=C(C)NC2=C1C(=O)CCC2 (centres unmarked) [ST052224, oxolan-2-ylmethyl 4-(5-bromo-2-methoxyphenyl)-2-methyl-5-oxo-1,4,6,7,8-pentahydroquinoline-3-carboxylate] | 76.9 | 68.1 |  |  |
| CCOc1ccc(C2C(C(=O)OC)=C(C)NC3=C2C(=O)CC(c2ccc(OC)cc2)C3)cc1 (centres unmarked) [ST016974, methyl 4-(4-ethoxyphenyl)-7-(4-methoxyphenyl)-2-methyl-5-oxo-1,4,6,7,8-pentahydroquinoline-3-carboxylate] | 34.6 | 57.4 |  |  |
| N#CC1=C(N)n2c(s/c(=C\c3cc(Br)ccc3O)c2=O)=C(C#N)C1c1cc(Br)ccc1O (centres unmarked) [ST025030, 5-amino-7-(5-bromo-2-hydroxyphenyl)-2-[(5-bromo-2-hydroxyphenyl)methylene]-3-oxo-4,7-dihydro-1,3-thiazolidino[3,2-a]pyridine-6,8-dicarbonitrile] |  |  | 39.29 % of control | 33.93 % of control |
| CCOC(=O)C1=C(C)N(C)C(C)=C(C(=O)OCC)C1c1ccccn1 [ST052366, ethyl 5-(ethoxycarbonyl)-1,2,6-trimethyl-4-(2-pyridyl)-1,4-dihydropyridine-3-carboxylate] |  |  | 56.21 % of control | 89.76 % of control |
| CCCOC(=O)C1=C(C)NC2=C(C(=O)CC(C)(C)C2)C1c1ccccc1 (centres unmarked) [ST017262, propyl 2,7,7-trimethyl-5-oxo-4-phenyl-1,4,6,7,8-pentahydroquinoline-3-carboxylate] | 60.1 | 86 |  |  |
| COC(=O)C1=C(C)NC2=C(C(=O)CCC2)C1c1ccc(OC)c(OC)c1OC (centres unmarked) [ST013147, methyl 2-methyl-5-oxo-4-(2,3,4-trimethoxyphenyl)-1,4,6,7,8-pentahydroquinoline-3-carboxylate] | 72 | 45.4 |  |  |

| Structure (SMILES) | activity at 5 µM (Aβ1-40) [%] | activity at 5 µM (Aβ1-42) [%] | Aβ1-40 (% of control) (Aβ1-40) | Aβ1-42 (% of control) (Aβ1-42) |
| --- | --- | --- | --- | --- |
| COC(=O)C1=CNC=C(C(=O)OC)C1c1cccc(OCc2ccccc2)c1 [ST052273, methyl 5-(methoxycarbonyl)-4-[3-(phenylmethoxy)phenyl]-1,4-dihydropyridine-3-carboxylate] |  |  | 84.66 % of control | 57.92 % of control |
| CCSCCOC(=O)C1=C(C)NC2=C(C(=O)CC(C)(C)C2)C1c1ccccc1C (centres unmarked) [ST052342, 2-ethylthioethyl 2,7,7-trimethyl-4-(2-methylphenyl)-5-oxo-1,4,6,7,8-pentahydroquinoline-3-carboxylate] | 13.7 | 9.88 |  |  |
| CCSCCOC(=O)C1=C(C)NC2=C(C(=O)CC(c3cccs3)C2)C1c1cccc(Cl)c1 (centres unmarked) [ST051570, 2-ethylthioethyl 4-(3-chlorophenyl)-2-methyl-5-oxo-7-(2-thienyl)-1,4,6,7,8-pentahydroquinoline-3-carboxylate] | 31.7 | 93.8 |  |  |
| COC(=O)C1=C(C)NC2=C(C(=O)CC(c3cccs3)C2)C1c1ccc(Cl)c(Cl)c1 (centres unmarked) [ST052414, methyl 4-(3,4-dichlorophenyl)-2-methyl-5-oxo-7-(2-thienyl)-1,4,6,7,8-pentahydroquinoline-3-carboxylate] | 70.2 | 66.9 |  |  |
| CCOc1cc(C2C(C(=O)OCCOC)=C(C)NC3=C2C(=O)CC(c2ccccc2)C3)cc(Br)c1O (centres unmarked) [ST017060, 2-methoxyethyl4-(3-bromo-5-ethoxy-4-hydroxyphenyl)-2-methyl-5-oxo-7-phenyl-1,4,6,7,8-pentahydroquinoline-3-carboxylate] | 39 | 61.7 |  |  |
| CCCc1ccc(NC(=O)CSC2=C(C#N)C(c3ccsc3)C(C(=O)Nc3ccccc3)=C(C)N2)cc1 (centres unmarked) [RI_52] |  |  | 50.3 % of control | 61.6 % of control |
| CCOC(=O)C1=CN(c2ccc(F)cc2)C=C(C(=O)OCC)C1c1cccs1 [ST052327, ethyl 5-(ethoxycarbonyl)-1-(4-fluorophenyl)-4-(2-thienyl)-1,4-dihydropyridine-3-carboxylate] |  |  | 57.74 % of control | 84.33 % of control |
| CCOCCOC(=O)C1=C(C)NC2=C(C(=O)CCC2)C1c1coc2ccccc2c1=O (centres unmarked) [ST052370, 2-ethoxyethyl 2-methyl-5-oxo-4-(4-oxochromen-3-yl)-1,4,6,7,8-pentahydroquinoline-3-carboxylate] | 68.6 | 69.7 |  |  |
| CCOC(=O)C1=C(C)NC2=C(C(=O)CCC2)C1c1cc(Br)c(C)s1 (centres unmarked) [ST020910, ethyl 4-(4-bromo-5-methyl(2-thienyl))-2-methyl-5-oxo-1,4,6,7,8-pentahydroquinoline-3-carboxylate] | 47.3 | 69.8 |  |  |
| CCc1ccc(C2C(C(=O)OCc3ccc(OC)cc3)=C(C)NC3=C2C(=O)CCC3)cc1 (centres unmarked) [ST016983, (4-methoxyphenyl)methyl 4-(4-ethylphenyl)-2-methyl-5-oxo-1,4,6,7,8-pentahydroquinoline-3-carboxylate] | 51.6 | 72.6 |  |  |
| CCCOC(=O)C1=C(C)NC2=C(C(=O)CCC2)C1c1cccc(O)c1 (centres unmarked) [ST014959, propyl 4-(3-hydroxyphenyl)-2-methyl-5-oxo-1,4,6,7,8-pentahydroquinoline-3-carboxylate] | 64 | 70.2 |  |  |
| CCOC(=O)C1=C(N)n2c(s/c(=C/c3ccco3)c2=O)=C(C(=O)OCC)C1c1ccco1 (centres unmarked) [ST011765, ethyl 5-amino-6-(ethoxycarbonyl)-7-(2-furyl)-2-(2-furylmethylene)-3-oxo-4,7-dihydro-1,3-thiazolidino[3,2-a]pyridine-8-carboxylate] |  |  | 42.57 % of control | 29.42 % of control |
| COCCOC(=O)C1=C(C)NC2=C(C(=O)CC(c3ccc(Cl)cc3)C2)C1c1ccc([N+](=O)[O-])cc1 (centres unmarked) [ST016971, 2-methoxyethyl 7-(4-chlorophenyl)-2-methyl-4-(4-nitrophenyl)-5-oxo-1,4,6,7,8-pentahydroquinoline-3-carboxylate] | 27.3 | 86.2 |  |  |
| COC(=O)C1=C(C)NC(C)=C(C(=O)OC)C1c1cccc(Br)c1 [ST208634, methyl 4-(3-bromophenyl)-5-(methoxycarbonyl)-2,6-dimethyl-1,4-dihydropyridine-3-carboxylate] |  |  | 80.5 % of control | 32.51 % of control |
| CCOC(=O)C1=c2s/c(=C/c3ccccc3C(F)(F)F)c(=O)n2C(N)=C(C#N)C1c1ccccc1C(F)(F)F (centres unmarked) [ST025089, ethyl 5-amino-6-cyano-3-oxo-7-[2-(trifluoromethyl)phenyl]-2-{[2-(trifluoromethyl)phenyl]methylene}-4,7-dihydro-1,3-thiazolidino[3,2-a]pyridine-8-carboxylate] |  |  | 48.71 % of control | 33.69 % of control |
